According to ChEMBL document CHEMBL4406882, “The plant-derived chalcone Xanthoangelol targets the membrane of Gram-positive bacteria” (Bioorg Med Chem, 2019):
≈ marks a conversion by molar mass, not a printed value. Calls of active or inactive are those of the source. No cut-off for these calls is given here.

What was measured:
[1] = system: Bacillus subtilis; assay: Induction of AroA protein expression in Bacillus subtilis 168 at 2.3 uM incubated for 15 mins by 35S-methionine pulse labeling based 2D-PAGE analysis; format: functional, organism-based
[2] = system: Pseudomonas aeruginosa; assay: Antibacterial activity against Pseudomonas aeruginosa ATCC 27853 by broth micro dilution method; format: functional
[3] = system: Bacillus subtilis; assay: Induction of DnaK.2 protein expression in Bacillus subtilis 168 at 2.3 uM incubated for 15 mins by 35S-methionine pulse labeling based 2D-PAGE analysis; format: functional, organism-based
[4] = system: Staphylococcus aureus; assay: Antibacterial activity against Staphylococcus aureus ATCC 25923 by broth micro dilution method; format: functional
[5] = system: Enterococcus faecalis; assay: Antibacterial activity against Enterococcus faecalis ATCC 35667 by broth micro dilution method; format: functional
[6] = system: Bacillus subtilis; assay: Induction of LiaH.2 protein expression in Bacillus subtilis 168 at 2.3 uM incubated for 15 mins by 35S-methionine pulse labeling based 2D-PAGE analysis; format: functional, organism-based
[7] = Cytotoxicity against human CLS54 cells assessed as reduction in cell viability incubated for 48 hrs by resazurin reagent based assay
[8] = system: Bacillus subtilis; assay: Induction of ClpP protein expression in Bacillus subtilis 168 at 2.3 uM incubated for 15 mins by 35S-methionine pulse labeling based 2D-PAGE analysis; format: functional, organism-based
[9] = system: Bacillus subtilis; assay: Induction of YceH protein expression in Bacillus subtilis 168 at 2.3 uM incubated for 15 mins by 35S-methionine pulse labeling based 2D-PAGE analysis; format: functional, organism-based
[10] = system: Bacillus subtilis; assay: Induction of YvlB protein expression in Bacillus subtilis 168 at 2.3 uM incubated for 15 mins by 35S-methionine pulse labeling based 2D-PAGE analysis; format: functional, organism-based
[11] = system: Staphylococcus aureus; assay: Bactericidal activity against methicillin-resistant Staphylococcus aureus ATCC 700699 assessed as reduction in bacterial CFU at 4 times MIC measured for 30 mins; format: functional
[12] = system: Bacillus subtilis; assay: Induction of TrxA protein expression in Bacillus subtilis 168 at 2.3 uM incubated for 15 mins by 35S-methionine pulse labeling based 2D-PAGE analysis; format: functional, organism-based
[13] = Selectivity index, ratio of IC50 for human HepG2 cells to MIC90 for methicillin-resistant Staphylococcus aureus ATCC 700699; format: toxicity; conditions: read-out: Selectivity Index
[14] = system: Staphylococcus aureus; assay: Induction of membrane integrity impairment in methicillin resistant Staphylococcus aureus Mu50 harboring GFP reporter plasmid assessed as increase in release of GFP at 1 to 16 times MIC incubated for 3 to 6 hrs by […]; format: functional, organism-based
[15] = Selectivity index, ratio of IC50 for human HEK293 cells to MIC90 for methicillin-resistant Staphylococcus aureus ATCC 700699; format: toxicity; conditions: read-out: Selectivity Index
[16] = system: Staphylococcus aureus; assay: Induction of membrane integrity impairment in methicillin-resistant Staphylococcus aureus ATCC 700699 at 0.5 to 4 times MIC measured for 30 mins by DiOC2(3) probe based fluorescence assay; format: functional, organism-based
[17] = system: Staphylococcus aureus; assay: Antibacterial activity against methicillin-resistant Staphylococcus aureus ATCC 700699 assessed as delay in growth at 1.56 uM measured for 6 hrs; format: functional, organism-based
[18] = system: Bacillus subtilis; assay: Induction of FabG protein expression in Bacillus subtilis 168 at 2.3 uM incubated for 15 mins by 35S-methionine pulse labeling based 2D-PAGE analysis; format: functional, organism-based
[19] = system: Enterococcus faecalis; assay: Antibacterial activity against Enterococcus faecalis ATCC 29212 by broth micro dilution method; format: functional
[20] = system: Bacillus subtilis; assay: Induction of HisI protein expression in Bacillus subtilis 168 at 2.3 uM incubated for 15 mins by 35S-methionine pulse labeling based 2D-PAGE analysis; format: functional, organism-based
[21] = system: Bacillus subtilis; assay: Induction of SerA protein expression in Bacillus subtilis 168 at 2.3 uM incubated for 15 mins by 35S-methionine pulse labeling based 2D-PAGE analysis; format: functional, organism-based
[22] = (§1) Cytotoxicity against human HepG2 cells assessed as reduction in cell viability incubated for 48 hrs by resazurin reagent based assay; conditions: human, HepG2 cells
[23] = system: HepG2; assay: as §1; conditions: Homo sapiens, HepG2, 48 h
[24] = system: Bacillus subtilis; assay: Induction of DnaK.1 protein expression in Bacillus subtilis 168 at 2.3 uM incubated for 15 mins by 35S-methionine pulse labeling based 2D-PAGE analysis; format: functional, organism-based
[25] = system: Bacillus subtilis; assay: Induction of PepF protein expression in Bacillus subtilis 168 at 2.3 uM incubated for 15 mins by 35S-methionine pulse labeling based 2D-PAGE analysis; format: functional, organism-based
[26] = system: Bacillus subtilis; assay: Induction of Hag protein expression in Bacillus subtilis 168 at 2.3 uM incubated for 15 mins by 35S-methionine pulse labeling based 2D-PAGE analysis; format: functional, organism-based
[27] = system: Bacillus subtilis; assay: Induction of MenB protein expression in Bacillus subtilis 168 at 2.3 uM incubated for 15 mins by 35S-methionine pulse labeling based 2D-PAGE analysis; format: functional, organism-based
[28] = system: Bacillus subtilis; assay: Induction of PpaC protein expression in Bacillus subtilis 168 at 2.3 uM incubated for 15 mins by 35S-methionine pulse labeling based 2D-PAGE analysis; format: functional, organism-based
[29] = system: Bacillus subtilis; assay: Induction of YuaE protein expression in Bacillus subtilis 168 at 2.3 uM incubated for 15 mins by 35S-methionine pulse labeling based 2D-PAGE analysis; format: functional, organism-based
[30] = system: Acinetobacter baumannii; assay: Antibacterial activity against Acinetobacter baumannii ATCC BAA-747 by broth micro dilution method; format: functional
[31] = system: Bacillus subtilis; assay: Induction of SufD protein expression in Bacillus subtilis 168 at 2.3 uM incubated for 15 mins by 35S-methionine pulse labeling based 2D-PAGE analysis; format: functional, organism-based
[32] = (§2) Cytotoxicity against human HEK293 cells assessed as reduction in cell viability incubated for 48 hrs by resazurin reagent based assay; conditions: human, HEK293 cells
[33] = system: HEK293; assay: as §2; conditions: Homo sapiens, HEK293, 48 h
[34] = system: Bacillus subtilis; assay: Antibacterial activity against Bacillus subtilis 168 by broth micro dilution method; format: functional
[35] = system: Staphylococcus aureus; assay: Antibacterial activity against mid-exponential growth phase of methicillin-resistant Staphylococcus aureus ATCC 700699 assessed as increase in cell lysis at 12.5 to 25 uM; format: functional, organism-based
[36] = system: Bacillus subtilis; assay: Induction of BdhA protein expression in Bacillus subtilis 168 at 2.3 uM incubated for 15 mins by 35S-methionine pulse labeling based 2D-PAGE analysis; format: functional, organism-based
[37] = system: Bacillus subtilis; assay: Induction of CysK protein expression in Bacillus subtilis 168 at 2.3 uM incubated for 15 mins by 35S-methionine pulse labeling based 2D-PAGE analysis; format: functional, organism-based
[38] = system: Bacillus subtilis; assay: Induction of GroES protein expression in Bacillus subtilis 168 at 2.3 uM incubated for 15 mins by 35S-methionine pulse labeling based 2D-PAGE analysis; format: functional, organism-based

SMILES: CC(C)=CCC/C(C)=C/Cc1c(O)ccc(C(=O)/C=C/c2ccc(O)cc2)c1O [XANTHOANGELOL]
- Activity [1]: Active
- MIC [2]: > 100 µM
- Activity [3]: Active
- MIC [4]: 6.25 µM (≈ 2.45 µg/mL)
- MIC [5]: 12.5 µM (≈ 4.91 µg/mL)
- Activity [6]: Active
- IC50 ([7]; Homo sapiens, 48 h): 58.8 µM
- IC90 at 48 h ([7]; human, CLS54 cells): 85.8 µM
- Activity [8]: Active
- Activity [9]: Active
- Activity [10]: Active
- Activity [11]: <20 CFU/ml
- Activity [12]: Active
- selectivity ratio [13]: 10.3
- Activity [14]: Active
- selectivity ratio [15]: 16.2
- Activity [16]: Active
- Activity [17]: Active
- Activity [18]: Active
- MIC [19]: 12.5 µM (≈ 4.91 µg/mL)
- Activity [20]: Active
- Activity [21]: Active
- IC90 at 48 h [22]: 37.4 µM
- IC50 [23]: 13.7 µM
- Activity [24]: Active
- Activity [25]: Active
- Activity [26]: Active
- Activity [27]: Active
- Activity [28]: Active
- Activity [29]: Active
- MIC [30]: > 100 µM
- Activity [31]: Active
- IC90 at 48 h [32]: 44.8 µM
- IC50 [33]: 21.5 µM
- MIC [34]: 3.12 µM (≈ 1.23 µg/mL)
- Activity [35]: Active
- Activity [36]: Active
- Activity [37]: Active
- Activity [38]: Active
